Measurements from patent US20260294769A1, “ASCORBIC ACID DERIVATIVES AND COSMETIC THEREOF” (SEIWA KASEI COMPANY, LIMITED, priority 2023, published 2026).
Read-outs that look alike come from different tables or passages of the source.

Tests used:
[1] = test system: Normal human dermal fibroblasts (NHDF); experiment: Hyaluronic acid production promoting effect (ELISA of hyaluronic acid in supernatant); type: cell-based; settings: 10 mM or less, 48 hours, control group set to 100%, N=3
Protocol: Normal human dermal fibroblasts (NHDF) were prepared in D-MEM containing 5% (v/v) fetal bovine serum to a cell density of 2.5×10^4 cells/well, and then pre-incubated on a 96-well plate for 24 hours. After removing the medium, samples prepared in serum-free D-MEM were added to each well and cultured for 48 hours. After the culture was completed, the amount of hyaluronic acid in the supernatant was quantified by ELISA. Measurements were performed in triplicate (N=3).
The amount of hyaluronic acid produced when the sample was measured at a concentration of 10 mM or less was compared with that of the control group, and the results (% values when the control group is set to 100%) are shown in Tables 18 to 20 based on the following criteria.

[2] = Stability Test-2: coloration of cream stored at 50° C.; type: physicochemical; settings: 10 panelists
Excerpt: • Evaluation was made by 10 panelists according to the following criteria. • 3: Almost no change compared to immediately after preparation. • 2: Color changes compared to immediately after preparation. • 1: Strongly colored compared to immediately after preparation. • Based on the results of the above evaluation, the following classification was made:
(§1) For each of the samples of Synthesis Examples 9 to 32, (a) and (b) shown in Table 12 were each heated and mixed. After cooling, (c) shown in Table 12 was added to prepare a cream with a pH of 7 or 9. […] The odor and coloration were also evaluated according to the same method and criteria as in Test Example 1. The results regarding the residual rate are shown in Tables 13 and 14, and the results regarding the odor and coloration are shown in Tables 15 and 16.

[3] = Stability Test-2: residual rate in cream of pH 7 or 9 stored at 50° C.; type: physicochemical
Protocol: as §1

[4] = Stability Test-2: odor of cream stored at 50° C.; type: physicochemical; settings: 10 panelists
Excerpt: • Evaluation was made by 10 panelists according to the following criteria. • 3: Almost odorless. • 2: There is a slight strange odor. • 1: A strong odor is detected. • Based on the results of the above evaluation, the following classification was made: • ◯: Total score of 10 panelists is 25 or more • Δ: Total score of 10 panelists is 16-24 • x: The total score of 10 panelists is 15 or less
as §1

[5] = Stability Test-1: residual rate of 1% aqueous solutions stored at 50° C. (HPLC); type: physicochemical; settings: water, 1% aqueous solution; for remaining at 336 h: after 2 weeks, read-out: Residual Rate; for remaining at 672 h: after 4 weeks
Protocol: For each of the samples of Synthesis Examples 1 to 6, 1% aqueous solutions were adjusted to pH 3, 5, 7, 8, and 9 with a dilute potassium hydroxide aqueous solution, and then placed in 50 mL screw tubes and sealed. […] Furthermore, the odor and coloration of the samples adjusted to pH 7 were evaluated based on the following methods and criteria, and the results are shown in Table 11.
• ⊚: 80% or more • ◯: 50% or more, less than 80% • Δ: 30% or more, less than 50% • x: Less than 30%

[6] = cream pH 7, 50° C., after 2 weeks, 20160 min
[7] = cream pH 7, 50° C., after 4 weeks, 40320 min
[8] = cream pH 9, 50° C., after 2 weeks, 20160 min
[9] = cream pH 9, 50° C., after 4 weeks, 40320 min

Row | Structure (SMILES) | Hyaluronic acid production-promoting effect [1] | Coloration ([2]; after 2 weeks) | Coloration ([2]; after 4 weeks) | Residual Rate [3, 6] | Residual Rate [3, 7] | Residual Rate [3, 8] | Residual Rate [3, 9] | Odor ([4]; after 2 weeks) | Odor ([4]; after 4 weeks) | also measured
1 | CCCCCCCCCCCCCCCC(=O)OC[C@H](O)[C@H]1OC(=O)C(OP(=O)(O)O)=C1O [Ascorbyl phosphate 3Na palmitate, reference compound] | ± (<100%) |  |  |  |  |  |  |  |  | 
2 | CCCCCCCCC(CCCCCC)C(=O)OC[C@H](OC(=O)C(CCCCCC)CCCCCCCC)[C@H]1OC(=O)C(OC(=O)C(CCCCCC)CCCCCCCC)=C1OC(=O)C(CCCCCC)CCCCCCCC (stereo partly shown) [Ascorbyl tetrahexyldecanoate, reference compound] |  | ◯ (Total score of 10 panelists is 25 or more) | Δ (Total score of 10 panelists is 16-24) | ∘ (85% or more, less than 95%) | x (Less than 85%) | ∘ (85% or more, less than 95%) | x (Less than 85%) | ◯ (Total score of 10 panelists is 25 or more) | Δ (Total score of 10 panelists is 16-24) | 
3 | O=C1O[C@H]([C@@H](O)CO)C(OCC(O)CO)=C1OCC(O)CO (stereo partly shown) [Bisglyceryl ascorbic acid, reference compound] |  |  |  |  |  |  |  |  |  | remaining at 336 h ([5]; pH 3, 50° C.): ≥ 80%; remaining at 672 h ([5]; pH 3, 50° C.): ≥ 80%; remaining at 336 h ([5]; pH 5, 50° C.): ≥ 80%; remaining at 672 h ([5]; pH 5, 50° C.): ≥ 80%; remaining at 336 h ([5]; pH 7, 50° C.): < 30%; remaining at 672 h ([5]; pH 7, 50° C.): < 30%; remaining at 336 h ([5]; pH 8, 50° C.): < 30%; remaining at 672 h ([5]; pH 8, 50° C.): < 30%; remaining at 336 h ([5]; pH 9, 50° C.): < 30%; remaining at 672 h ([5]; pH 9, 50° C.): < 30%
4 | CCCC(=O)OCC(O)C1OC(=O)C2=C1OCCCCO2 (stereo not shown) [Synthesis Example 9, 6-O-butanoyl-2,3-O-(1,4-butanediyl) ascorbic acid] | ++ (120%<) | ◯ (Total score of 10 panelists is 25 or more) | ◯ (Total score of 10 panelists is 25 or more) | ⊚ (95% or more) | ⊚ (95% or more) | ⊚ (95% or more) | ⊚ (95% or more) | ◯ (Total score of 10 panelists is 25 or more) | Δ (Total score of 10 panelists is 16-24) | 
5 | CCCCCCCC(=O)OCC(O)C1OC(=O)C2=C1OCCCCO2 (stereo not shown) [Synthesis Example 11, 6-O-octanoyl-2,3-O-(1,4-butanediyl) ascorbic acid] | ++ (120%<) | ◯ (Total score of 10 panelists is 25 or more) | ◯ (Total score of 10 panelists is 25 or more) | ⊚ (95% or more) | ⊚ (95% or more) | ⊚ (95% or more) | ∘ (85% or more, less than 95%) | ◯ (Total score of 10 panelists is 25 or more) | Δ (Total score of 10 panelists is 16-24) | 
6 | CCCCCCCCCCCCCCCC(=O)OCC(OC(=O)CCCCCCCCCCCCCCC)C1OC(=O)C2=C1OCCCCO2 (stereo not shown) [Synthesis Example 16, 5,6-O-dipalmitoyl-2,3-O-(1,4-butanediyl) ascorbic acid] | ++ (120%<) | ◯ (Total score of 10 panelists is 25 or more) | ◯ (Total score of 10 panelists is 25 or more) | ⊚ (95% or more) | ⊚ (95% or more) | ⊚ (95% or more) | ⊚ (95% or more) | ◯ (Total score of 10 panelists is 25 or more) | Δ (Total score of 10 panelists is 16-24) | 
7 | CC(C)CCCCCCCCCCCCCCC(=O)OC[C@H](OC(=O)CCCCCCCCCCCCCCC(C)C)[C@H]1OC(=O)C2=C1OCCCCO2 [Synthesis Example 18, 5,6-O-diisostearoyl-2,3-O-(1,4-butanediyl) ascorbic acid] | ++ (120%<) | ◯ (Total score of 10 panelists is 25 or more) | ◯ (Total score of 10 panelists is 25 or more) | ⊚ (95% or more) | ⊚ (95% or more) | ⊚ (95% or more) | ⊚ (95% or more) | ◯ (Total score of 10 panelists is 25 or more) | Δ (Total score of 10 panelists is 16-24) | 
8 | CCCCCCCC(=O)OC[C@H](OC(=O)CCC)[C@H]1OC(=O)C2=C1OCCCCO2 [Synthesis Example 19, 5-O-butanoyl-6-O-octanoyl-2,3-O-(1,4-butanediyl) ascorbic acid] |  | ◯ (Total score of 10 panelists is 25 or more) | ◯ (Total score of 10 panelists is 25 or more) | ⊚ (95% or more) | ⊚ (95% or more) | ⊚ (95% or more) | ⊚ (95% or more) | ◯ (Total score of 10 panelists is 25 or more) | Δ (Total score of 10 panelists is 16-24) | 
9 | CCCC(=O)OCC(O)C1OC(=O)C2=C1OCCCO2 (stereo not shown) [Synthesis Example 20, 6-O-butanoyl-2,3-O-(1,3-propanediyl) ascorbic acid] | ++ (120%<) | ◯ (Total score of 10 panelists is 25 or more) | ◯ (Total score of 10 panelists is 25 or more) | ⊚ (95% or more) | ⊚ (95% or more) | ⊚ (95% or more) | ⊚ (95% or more) | ◯ (Total score of 10 panelists is 25 or more) | Δ (Total score of 10 panelists is 16-24) | 
10 | CCCCCCCCCCCCCCCC(=O)OCC(OC(=O)CCC)C1OC(=O)C2=C1OCCCO2 (stereo not shown) [Synthesis Example 30, 5-O-butanoyl-6-O-palmitoyl-2,3-O-(1,3-propanediyl) ascorbic acid] |  | ◯ (Total score of 10 panelists is 25 or more) | ◯ (Total score of 10 panelists is 25 or more) | ⊚ (95% or more) | ⊚ (95% or more) | ⊚ (95% or more) | ⊚ (95% or more) | ◯ (Total score of 10 panelists is 25 or more) | Δ (Total score of 10 panelists is 16-24) | 
11 | CC(C)CCCCCCCCCCCCCCC(=O)OCC(OC(=O)CCCCCCCCCCCCCCC(C)C)C1OC(=O)C2=C1OCCO2 (stereo not shown) [Synthesis Example 32, 5,6-O-diisostearoyl-2,3-O-(1,2-ethanediyl) ascorbic acid] |  | ◯ (Total score of 10 panelists is 25 or more) | ◯ (Total score of 10 panelists is 25 or more) | ⊚ (95% or more) | ⊚ (95% or more) | ⊚ (95% or more) | ⊚ (95% or more) | ◯ (Total score of 10 panelists is 25 or more) | Δ (Total score of 10 panelists is 16-24) | 
12 | CC1(C)OCC(C2OC(=O)C3=C2OCCCCO3)O1 (stereo not shown) [Synthesis Example 35, 5,6-O-isopropylidene-2,3-O-(1,4-butanediyl) ascorbic acid] | ++ (120%<) |  |  |  |  |  |  |  |  | 
13 | CC1(C)OCC(C2OC(=O)C3=C2OCCCO3)O1 (stereo not shown) [Synthesis Example 36, 5,6-O-isopropylidene-2,3-O-(1,3-propanediyl) ascorbic acid] | ++ (120%<) |  |  |  |  |  |  |  |  | 
14 | O=C1OC(C2COC(c3ccccc3)O2)C2=C1OCCCO2 (stereo not shown) [Synthesis Example 38, 5,6-O-(phenylmethylene)-2,3-O-(1,3-propanediyl) ascorbic acid] | ++ (120%<) |  |  |  |  |  |  |  |  | 
